Data set [1] concerns adult bed bugs Cimex lectularius. Put plainly: Vapor exposure of unconcealed bed bugs in sealed jar, 24 hour mortality. The note with it: one drop (about 25-30 mg) on filter paper in sealed 16 oz. glass jar. The format is in vivo. The protocol:
(§1) This test was undertaken employing unconcealed bed bugs. One drop (about 25-30 mg) of a naturally occurring aromatic test compound was applied to a filter paper and placed with a 16 oz. glass jar (3½ inches diameter×3⅞ inches high) containing ten adult bed bugs Cimex lectularius of both sexes. The jar was then sealed with a plastic lid. Five replicates of ten bed bugs were exposed to each of the test compounds. The test formulations were assessed for 24 hour mortality. A control jar with no test compound was also included in the testing.
The test was repeated with several other test compounds in the same manner: […]

Data set [2] shares this test system. Put plainly: Vapor exposure of concealed bed bugs (folded mattress ticking) in sealed jar, 72 hour mortality. The note with it: one drop (about 25-30 mg) on filter paper in sealed 16 oz. glass jar. The data set is classed as in vivo. As for the experimental part:
as §1, with “conducted using concealed” for “undertaken employing unconcealed”, “sexes. A piece of folded mattress ticking was also placed in the jar to allow the bed bugs a place to hide.” for “sexes.”, “Mortality was” for “The test formulations were”, “at 72 hours.” for “for 24 hour mortality.”, “testing. The mortality results were as follows.” for “testing.”

Where [3] appears, read: repeated test with other compounds.

Regarding `CC(O)c1ccccc1` (stereo not shown) [Styralyl alcohol], the “24 hr Mean Mortality %” value in data set [1] (setting [3]) is reported as 89.8%. Moreover, the “72 hr Mean Mortality %” value in data set [2] stood at 91.8%.
In the case of l-Carvone, the “24 hr Mean Mortality %” value in data set [1] (first test) was 73.5%. Further, the “72 hr Mean Mortality %” value in data set [2] came out at 46.7%.
Taken in the same sequence, the figures for `C=C[C@](C)(O)CCC=C(C)C` [l-Linalool] were 100.0% and 68%.
For the molecule `C=C[C@@](C)(O)CCC=C(C)C` [d-Linalool], the “24 hr Mean Mortality %” value in data set [1] (setting [3]) is given as 92.0%.
As for `C=C(C)[C@H]1CC=C(C)C(=O)C1` [d-Carvone], in data set [1] (setting [3]), the “24 hr Mean Mortality %” value came to 47.8%.
With `CC(C)[C@@H]1CC[C@@H](C)C(=O)C1` [Tetrahydrocarvone], the “24 hr Mean Mortality %” value in data set [1] (setting [3]) came out at 58.1%. For the same molecule, the “72 hr Mean Mortality %” value in data set [2] is reported as 16.7%.

The values above are taken from patent US20110213038A1, “CONTROL OF BED BUGS” (priority 2008, published 2011).
